Results published in ChEMBL document CHEMBL5113441, “Exploration of 4-(1H-indol-3-yl)cyclohex-3-en-1-amine analogues as HDAC inhibitors: Design, synthesis, biological evaluation and modelling studies” (Bioorg Med Chem Lett, 2022).
Activity calls are given as the source filed them. The calls are words filed in the database; no cut-off is given here.

How the values were obtained:
[1] = tested on: SW480; assay: Antiproliferative activity against human SW480 cells measured after 72 hrs; format: functional, cell-based; conditions: SW480, 72 h
[2] = tested on: A549; assay: Antiproliferative activity against human A549 cells measured after 72 hrs; format: functional, cell-based; conditions: A549, 72 h
[3] = tested on: MCF7; assay: Antiproliferative activity against human MCF7 cells measured after 72 hrs; format: functional, cell-based; conditions: MCF7, 72 h
[4] = tested on: HCT-116; assay: Antiproliferative activity against human HCT-116 cells measured after 72 hrs; format: functional, cell-based; conditions: HCT-116, 72 h
[5] = target: Histone deacetylase 1 (Homo sapiens, UniProt Q13547); assay: Inhibition of HDAC1 (unknown origin)
[6] = target: Histone deacetylase 2 (Homo sapiens, UniProt Q92769); assay: Inhibition of HDAC2 (unknown origin)
[7] = target: T1, Histone deacetylase 8 (Homo sapiens, UniProt Q9BY41); assay: Inhibition of HDAC8 (unknown origin)
T1 sequence (Q9BY41 whole entry): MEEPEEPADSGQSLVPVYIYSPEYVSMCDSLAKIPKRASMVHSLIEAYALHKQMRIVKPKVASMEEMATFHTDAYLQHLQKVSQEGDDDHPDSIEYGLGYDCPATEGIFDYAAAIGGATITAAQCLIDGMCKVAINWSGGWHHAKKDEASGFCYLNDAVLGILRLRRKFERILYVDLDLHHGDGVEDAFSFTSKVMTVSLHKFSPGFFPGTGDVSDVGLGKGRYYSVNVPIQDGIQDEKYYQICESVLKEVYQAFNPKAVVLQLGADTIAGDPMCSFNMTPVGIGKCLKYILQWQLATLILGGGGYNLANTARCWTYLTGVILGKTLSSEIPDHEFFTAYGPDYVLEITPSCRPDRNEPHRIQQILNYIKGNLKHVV

[8] = Cytotoxicity against human L02 cells measured after 72 hrs
[9] = target: Histone deacetylase 3 (Homo sapiens, UniProt O15379); assay: Inhibition of HDAC3 (unknown origin)
[10] = target: T2, Protein deacetylase HDAC6 (Homo sapiens, UniProt Q9UBN7); assay: Inhibition of HDAC6 (unknown origin)
T2 sequence (Q9UBN7 whole entry): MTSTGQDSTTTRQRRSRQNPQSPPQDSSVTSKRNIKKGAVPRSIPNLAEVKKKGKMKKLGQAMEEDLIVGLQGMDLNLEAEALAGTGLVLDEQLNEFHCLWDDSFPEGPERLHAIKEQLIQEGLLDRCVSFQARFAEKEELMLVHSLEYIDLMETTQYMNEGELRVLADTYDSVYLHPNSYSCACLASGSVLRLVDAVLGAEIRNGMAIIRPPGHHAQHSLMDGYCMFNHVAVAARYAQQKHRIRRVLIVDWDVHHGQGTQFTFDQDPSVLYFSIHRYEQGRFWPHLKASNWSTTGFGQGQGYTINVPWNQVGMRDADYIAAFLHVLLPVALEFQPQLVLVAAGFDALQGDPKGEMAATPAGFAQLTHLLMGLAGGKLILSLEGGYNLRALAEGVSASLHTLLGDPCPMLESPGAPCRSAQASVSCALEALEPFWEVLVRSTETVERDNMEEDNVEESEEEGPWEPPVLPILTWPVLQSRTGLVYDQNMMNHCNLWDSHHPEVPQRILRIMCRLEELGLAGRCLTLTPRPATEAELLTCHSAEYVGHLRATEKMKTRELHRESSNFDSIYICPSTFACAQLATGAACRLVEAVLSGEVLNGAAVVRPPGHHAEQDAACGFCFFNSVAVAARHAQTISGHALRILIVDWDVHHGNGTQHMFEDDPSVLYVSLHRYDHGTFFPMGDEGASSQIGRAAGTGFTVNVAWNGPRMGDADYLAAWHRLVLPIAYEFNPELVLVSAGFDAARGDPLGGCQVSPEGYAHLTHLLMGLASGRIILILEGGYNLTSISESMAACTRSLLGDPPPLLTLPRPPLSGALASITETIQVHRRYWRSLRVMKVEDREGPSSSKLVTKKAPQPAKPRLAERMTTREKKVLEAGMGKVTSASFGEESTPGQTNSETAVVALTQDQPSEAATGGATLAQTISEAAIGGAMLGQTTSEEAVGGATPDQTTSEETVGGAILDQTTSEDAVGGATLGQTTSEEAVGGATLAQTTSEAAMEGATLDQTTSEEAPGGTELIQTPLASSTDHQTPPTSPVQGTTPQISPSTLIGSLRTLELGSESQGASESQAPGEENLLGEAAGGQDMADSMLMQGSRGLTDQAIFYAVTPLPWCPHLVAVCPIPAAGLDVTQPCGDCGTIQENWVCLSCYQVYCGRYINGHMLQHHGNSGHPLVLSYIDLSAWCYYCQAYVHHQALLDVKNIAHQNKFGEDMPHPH

[11] = tested on: HCT-116; assay: Induction of apoptosis in human HCT-116 cells at 2000 nM measured after 48 hrs by Annexin-FITC/propidium iodide staining based flow cytometry; format: functional, cell-based

Histone deacetylase 1, sequence (Q13547 whole entry): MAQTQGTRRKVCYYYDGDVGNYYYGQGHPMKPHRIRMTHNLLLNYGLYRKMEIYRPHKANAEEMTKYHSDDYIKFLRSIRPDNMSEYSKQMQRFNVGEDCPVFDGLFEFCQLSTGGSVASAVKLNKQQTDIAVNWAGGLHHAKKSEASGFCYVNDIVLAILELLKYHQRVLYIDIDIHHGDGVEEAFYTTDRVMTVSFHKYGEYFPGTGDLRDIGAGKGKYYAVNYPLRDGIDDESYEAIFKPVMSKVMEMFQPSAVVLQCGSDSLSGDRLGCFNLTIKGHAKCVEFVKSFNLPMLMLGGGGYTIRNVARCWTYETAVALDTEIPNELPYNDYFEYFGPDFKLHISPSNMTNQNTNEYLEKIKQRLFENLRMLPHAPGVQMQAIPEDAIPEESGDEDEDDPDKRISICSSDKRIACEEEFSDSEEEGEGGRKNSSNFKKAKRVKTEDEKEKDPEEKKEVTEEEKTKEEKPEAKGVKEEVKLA
Histone deacetylase 3, sequence (O15379 whole entry): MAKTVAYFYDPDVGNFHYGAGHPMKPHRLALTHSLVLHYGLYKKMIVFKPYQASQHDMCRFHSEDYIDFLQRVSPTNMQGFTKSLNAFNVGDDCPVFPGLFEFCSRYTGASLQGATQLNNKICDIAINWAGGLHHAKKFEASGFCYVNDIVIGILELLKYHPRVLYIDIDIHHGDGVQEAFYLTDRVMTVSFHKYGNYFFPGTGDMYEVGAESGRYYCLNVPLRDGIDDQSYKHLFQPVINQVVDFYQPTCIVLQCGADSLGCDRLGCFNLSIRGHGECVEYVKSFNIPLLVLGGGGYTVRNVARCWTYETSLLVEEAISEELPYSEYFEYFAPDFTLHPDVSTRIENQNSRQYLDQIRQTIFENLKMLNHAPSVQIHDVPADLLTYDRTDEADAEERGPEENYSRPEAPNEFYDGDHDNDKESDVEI
Histone deacetylase 2, sequence (Q92769 whole entry): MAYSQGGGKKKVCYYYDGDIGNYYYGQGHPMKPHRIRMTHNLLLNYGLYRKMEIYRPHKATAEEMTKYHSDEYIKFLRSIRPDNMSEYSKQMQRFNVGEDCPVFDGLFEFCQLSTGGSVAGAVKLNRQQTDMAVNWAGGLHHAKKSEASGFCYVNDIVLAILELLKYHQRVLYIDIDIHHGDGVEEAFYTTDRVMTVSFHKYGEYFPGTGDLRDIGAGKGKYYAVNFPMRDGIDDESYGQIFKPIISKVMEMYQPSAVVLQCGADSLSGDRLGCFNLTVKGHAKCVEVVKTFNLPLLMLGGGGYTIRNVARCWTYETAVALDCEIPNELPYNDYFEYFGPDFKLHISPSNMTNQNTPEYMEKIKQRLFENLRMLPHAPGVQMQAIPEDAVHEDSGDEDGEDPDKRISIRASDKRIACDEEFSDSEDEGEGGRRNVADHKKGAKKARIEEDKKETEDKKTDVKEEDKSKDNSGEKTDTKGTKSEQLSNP

Compound | IC50 [1] | IC50 [3] | IC50 [4] | also measured
O=C(COc1ccc(CNC2CC=C(c3c[nH]c4ccc(F)cc34)CC2)c(F)c1)NO (configuration not stated) | 0.179 µM | 1.42 µM | 0.261 µM | IC50 [2]: 0.304 µM
O=C(COc1ccc(CN2CC=C(c3c[nH]c4ccc(F)cc34)CC2)cc1)NO | 1.11 µM | – | 0.949 µM | –
O=C(COc1ccc(CNC2CC=C(c3c[nH]c4cccc(F)c34)CC2)c(F)c1)NO (configuration not stated) | 0.189 µM | 0.915 µM | 0.173 µM | IC50 [2]: 0.203 µM
O=C(COc1ccc(CN2CC=C(c3c[nH]c4cccc(F)c34)CC2)c(F)c1)NO | 5.56 µM | – | 1.22 µM | –
Cc1ccc2[nH]cc(C3=CCC(NCc4ccc(OCC(=O)NO)cc4F)CC3)c2c1 (configuration not stated) | 2.78 µM | – | 0.445 µM | –
Cc1ccc2[nH]cc(C3=CCN(Cc4ccc(OCC(=O)NO)cc4)CC3)c2c1 | 3.96 µM | – | 0.632 µM | –
O=C(COc1ccc(C(=O)N2CC=C(c3c[nH]c4ccc(F)cc34)CC2)cc1)NO | > 5 µM | – | > 5 µM | –
O=C(COc1ccc(C(=O)N2CC=C(c3c[nH]c4cccc(F)c34)CC2)cc1)NO | 1.49 µM | – | 1.41 µM | –
Cc1[nH]c2ccccc2c1C1=CCN(Cc2ccc(OCC(=O)NO)cc2F)CC1 | 1.6 µM | – | 1.22 µM | –

Now from value to compound, other results behind:

IC50 [1] | IC50 [3] | IC50 [4] | Compound | also measured
0.509 µM | 2.31 µM | 0.733 µM | Cc1[nH]c2ccccc2c1C1=CCC(NCc2ccc(OCC(=O)NO)cc2F)C(F)C1 (configuration not stated) | IC50 [2]: 0.501 µM
– | 1.08 µM | 1.94 µM | O=C(COc1ccc(CNCCc2c[nH]c3ccccc23)cc1Cl)NO | –
> 5 µM | – | > 5 µM | Cc1[nH]c2ccccc2c1C1=CCC(NC(=O)c2ccc(OCC(=O)NO)cc2)CC1 (configuration not stated) | –
– | 0.221 µM | 0.192 µM | O=C(COc1ccc(CNCCc2c[nH]c3ccccc23)cc1)NO | –
– | 0.077 µM | 0.046 µM | O=C(COc1ccc(CNCCc2c[nH]c3ccccc23)c(F)c1)NO | IC50 [5]: 0.0021 µM; IC50 [6]: 0.0031 µM; IC50 [7]: 0.09 µM; IC50 at 72 h [8]: 1.56 µM; IC50 [9]: 0.0063 µM; IC50 [10]: 0.014 µM
2.12 µM | – | – | O=C(CCCCCCC(=O)Nc1ccccc1)NO [VORINOSTAT] | Activity [11]: Active
